# Experimental data: PMC8179002, “Inhibitors of thiol-mediated uptake” (Chemical Science, 2020)
# Where two headings read alike, the source gives them in different places. Bridge positions count the residues as written; N and C are the ends. Peptide text beside a SMILES is read from it.
# Legend:
# [1] = tested on: HeLa Kyoto cells; experiment: Relative cell viability in HCHT screening (propidium iodide negative nuclei count); assay type: cell-based; conditions: HeLa, removal, tinc 0.5 h with 1 (10 µM), read-out: GI50, concentration causing 50% cell growth inhibition
# Procedure: (§1) With COCs 1 and 2 as cell-penetrating reporters, a fully automated, fluorescent microscopy image-based high-content high-throughput (HCHT)[19] inhibitor screening assay was developed. HeLa cells in multiwell plates are incubated with a reporter at constant and inhibitors at varying concentrations and incubation times. Hindered reporter uptake then causes decrease of fluorescence inside of cells (Fig. 3a). Automated data analysis[19] was established to extract average fluorescence intensity per cell and, at the same time, cell viability from propidium iodide negative nuclei count (Fig. 3 and S3–S6 ^†). Standard assay conditions consisted of pre-incubation of HeLa cells with inhibitors for different periods of time, followed by the removal of inhibitors and the addition of reporters, thus excluding possible interactions between the two in the extracellular environment. In alternative co-incubation conditions, inhibitors were not removed before the addition of reporters to allow for eventual interactions between the two.
# (§2) To be able to extract the fluorescent integrated intensity information (sum of the intensities of all the pixels included in the mask) from the green channel for live cell only, the image analysis pipeline contains several steps of cell filtering and selection:
# (§3) 1) Firstly, PI is used to stain any remaining nuclei of dead cell. In the analysis pipeline, all the “dead” nuclei are detected based on their fluorescent intensity in the PI channel (Figure […]
# (§4) Fig. S4 (A) PI positive nuclei mask (fluorescent intensity threshold of 1000). (B) Overlap image of dead nuclei mask and original all cell body mask. (C) Resulting cell mask after removing any cell marked by a dead nucleus, new mask is called “Live Cell”. Scale bar: 50 μm.
# (§5) 2) Elimination of non-full cells from the border of the image is performed, to avoid inaccurate fluorescent integrated intensity quantification (fluorescent integrated intensity = sum of intensity of all the pixel of the object) (Figure S5).
# (§6) (1 picture or pasted object on this page, not shown here)
# (§7) 4.3. HCHT Inhibitor Screening with ETP as Reporter […]
# (§8) Relative cell viability (RV) for each condition in the presence of inhibitors were calculated using the count value of living cells by dividing the count value of living cells with addition of reporter 1, Hoechst 33342 and PI, for each set of experiments. Duplicates were performed for each condition. The resulting dependence of the relative cell viability (RVrel) to the concentration of inhibitors (cinhibitor) was plotted and fitted with Equation (S2) to retrieve the concentration causing 50% cell growth inhibition (GI50) value and the Hill coefficient (n).
# (§9) RVrel = 1 / (1 + (GI50 / cinhibitor)n) (S2)
# (§10) Note: Reporter 1 were not toxic for 1 h at 10 μM.S2 Also in this study, the count value of living cells with addition of reporter 1, Hoechst 33342 and PI is always similar to that of living cells with only addition of Hoechst 33342 and PI.
# as §8, with “with” for “in the presence of”, “2,” for “1,”
# (§11) Note: Reporter 2 were not toxic for 24 h at 10 μM.S3 Also in this study, the count value of living cells with addition of reporter 2, Hoechst 33342 and PI is always similar to that of living cells with only addition of Hoechst 33342 and PI.
# (§12) 4.4.1. Screening with Disulfides as Inhibitors
# (§13) 4.4.1.1. Screening with ETP as Inhibitors
# (§14) Fig. S35 Automatically analyzed HCHT data showing fluorescence intensity (filled symbols) and relative viability (empty symbols) of HeLa cells after pre-incubation with 3 for 1 h (blue […]
# [2] = as above; assay type: cell-based; conditions: human, HeLa, read-out: GI50, concentration causing 50% cell growth inhibition
# Procedure: as §1, §2, §3, §4, §5, §6, §7, §8, §9, §10
# as §8, with “with” for “in the presence of”, “2,” for “1,”
# as §11, §12, §13, §14
# [3] = trans to cis isomer 22; Fig. S46
# [4] = tested on: A549 human lung alveolar basal epithelium cells overexpressing ACE2 and TMPRSS2; conditions: Fig. S44
# [5] = tpre 0.5 h, then tco 0.5 h co-incubation of inhibitor and 1 (10 µM)
# [6] = tpre 5.5 h with FBS, then tco 0.5 h co-incubation of inhibitor and 1 (10 µM)
# [7] = tpre 23.5 h with FBS, then tco 0.5 h co-incubation of inhibitor and 1 (10 µM)
# [8] = tpre 0.5 h, then tco 0.5 h co-incubation of inhibitor and 2 (10 µM)
# [9] = tpre 0.5 h with inhibitor, removal, tinc 0.5 h with 1 (10 µM)
# [10] = tpre 1 h with inhibitor, removal, tinc 0.5 h with 1 (10 µM)
# [11] = tpre 1 h with inhibitor, removal, tinc 0.5 h with 2 (10 µM)
# [12] = tpre 2 h with inhibitor, removal, tinc 0.5 h with 1 (10 µM)
# [13] = tpre 4 h with inhibitor, removal, tinc 0.5 h with 1 (10 µM)
# [14] = tpre 4 h with inhibitor, removal, tinc 0.5 h with 2 (10 µM)
# [15] = tpre 6 h with FBS, removal, tinc 0.5 h with 2 (10 µM)
# [16] = HeLa Kyoto cells, tpre 0.5 h, then tco 0.5 h co-incubation of inhibitor and 2 (10 µM)
# [17] = HeLa Kyoto cells, tpre 0.5 h with inhibitor, removal, tinc 0.5 h with 1 (10 µM)
# [18] = HeLa Kyoto cells, tpre 1 h with inhibitor, removal, tinc 0.5 h with 1 (10 µM)
# [19] = HeLa Kyoto cells, tpre 1 h with inhibitor, removal, tinc 0.5 h with 2 (10 µM)
# [20] = HeLa Kyoto cells, tpre 1.5 h, then tco 0.5 h co-incubation of inhibitor and 2 (10 µM)
# [21] = HeLa Kyoto cells, tpre 2 h with inhibitor, removal, tinc 0.5 h with 1 (10 µM)
# [22] = HeLa Kyoto cells, tpre 2 h with inhibitor, removal, tinc 0.5 h with 2 (10 µM)
# [23] = HeLa Kyoto cells, tpre 4 h with inhibitor, removal, tinc 0.5 h with 2 (10 µM)
# [24] = tpre 23.5 h with FBS, then tco 0.5 h co-incubation of inhibitor and 2 (10 µM)
Structure (SMILES),"GI50 [2, 5]","GI50 [2, 6]","GI50 [2, 7]","GI50 [2, 8]","GI50 [2, 9]","GI50 [2, 10]","GI50 [2, 12]","GI50 [2, 13]","GI50 [2, 14]","GI50 [2, 15]",also measured
[O-][S+]1CC(O)C(O)CS1 (stereo not shown) [compound 17],> 500 µM,> 1000 µM,450 ± 50 µM,–,–,–,–,–,–,–,GI50 ([1]; tpre 1 h with inhibitor): 710 ± 50 µM; GI50 ([1]; tpre 2 h with inhibitor): 730 ± 10 µM; GI50 ([1]; tpre 4 h with inhibitor): ~500 µM; Isomerization [3]: isomerized with time
CCN1C(=O)C2SSC1C(=O)N2CC(=O)O (stereo not shown) [compound 4],~8.4 µM,> 20 µM,> 20 µM,~20 µM,> 100 µM,12.5 ± 0.7 µM,~9.2 µM,6.4 ± 0.3 µM,~4 µM,–,"GI50 [2, 11]: > 20 µM"
CCN1C(=O)C2SSSSC1C(=O)N2CC(=O)O (stereo not shown) [compound 3],13.3 ± 0.8 µM,> 50 µM,> 50 µM,~20 µM,34 ± 2.9 µM,35 ± 4.4 µM,46.1 ± 4.8 µM,> 50 µM,–,> 100 µM,"GI50 [2, 11]: > 20 µM; Concentration at which toxicity was detected [4]: 50 µM"
O=C(O)CNC(=O)c1ccc2c(c1)SSSSS2 [compound 6],> 20 µM,> 20 µM,> 20 µM,> 20 µM,> 100 µM,~98 µM,~45 µM,~44 µM,~17 µM,~105 µM,–
O=S1(=O)C[C@H](O)[C@H](O)CS1 [compound 16],–,> 1000 µM,490 ± 60 µM,–,–,1300 ± 490 µM,–,–,> 500 µM,–,Concentration at which toxicity was detected [4]: 500 µM
N[C@H]1CSSC[C@@H](C(=O)N[C@@H](CCC(=O)O)C(=O)O)NC(=O)CNC1=O [compound 19] (H-CGCE-OH; disulfide 1-3),–,–,–,–,–,–,–,–,–,–,"GI50 at 1 h [2, 16]: > 500 µM; GI50 at 0.5 h [2, 17]: > 2000 µM; GI50 at 1 h [2, 18]: > 2000 µM; GI50 at 1 h [2, 19]: > 1000 µM; GI50 at 2 h [2, 20]: > 500 µM; GI50 at 2 h [2, 21]: > 2000 µM; GI50 at 2 h [2, 22]: > 1000 µM; GI50 at 4 h [2, 23]: > 1000 µM"
O=C(CN1C(=O)C2SSC1C(=O)N2CCOc1ccccc1)NCC(=O)OC[C@H]1OC(O)[C@H](O)[C@@H](O)[C@@H]1O (stereo partly shown) [compound 7],–,> 100 µM,> 100 µM,–,> 100 µM,> 100 µM,> 100 µM,–,> 100 µM,> 200 µM,"GI50 [2, 24]: > 100 µM"
N[C@H]1CSSC[C@@H](C(=O)NCC(=O)O)NC(=O)[C@H](CCC(=O)O)NC1=O [compound 18] (H-CECG-OH; disulfide 1-3),–,–,–,–,–,–,–,–,–,–,"GI50 at 1 h ([2]; HeLa Kyoto cells, tpre 0.5 h, then tco 0.5 h co-incubation of inhibitor and 1 (10 µM)): > 500 µM; GI50 at 1 h [2, 16]: > 500 µM; GI50 at 0.5 h [2, 17]: > 2000 µM; GI50 at 1 h [2, 18]: > 2000 µM; GI50 at 1 h [2, 19]: > 1000 µM; GI50 at 2 h [2, 20]: > 500 µM; GI50 at 2 h [2, 21]: > 2000 µM; GI50 at 2 h [2, 22]: > 1000 µM; GI50 at 4 h [2, 23]: > 1000 µM; GI50 at 6 h ([2]; HeLa Kyoto cells, tpre 5.5 h with FBS, then tco 0.5 h co-incubation of inhibitor and 1 (10 µM)): > 1000 µM; GI50 at 24 h ([2]; HeLa Kyoto cells, tpre 23.5 h with FBS, then tco 0.5 h co-incubation of inhibitor and 1 (10 µM)): > 1000 µM"
O=C(O)CC[C@H](NC(=O)CCCCC1CCSS1(=O)=O)C(=O)O (stereo partly shown) [compound 15],–,> 1000 µM,944 ± 60 µM,–,> 500 µM,> 500 µM,> 500 µM,–,> 500 µM,–,"GI50 [2, 24]: > 500 µM"
O=C(O)CC[C@H](NC(=O)CN1C(=O)C2SSC1C(=O)N2CCOc1ccccc1)C(=O)O (stereo partly shown) [compound 9],–,–,–,–,> 100 µM,> 100 µM,> 100 µM,–,> 100 µM,> 200 µM,–
